Source: article PMC8071183 (International Journal of Molecular Sciences, 2021)

Legend:
[1] = molecular target: T1, WT D2R (human dopamine D2S receptor) (Homo sapiens, UniProt P14416); assay: GIRK current activation rate (kobs) vs agonist concentration (kon estimate), WT D2R; assay type: cell-based
Experimental: (§1) A straight line was fitted to the data over the linear range of the relation between kobs and agonist concentration and the slope was taken as a measure of kon.
(§2) Experiments were performed using a perfusion rate of 4.5 mL/min. […] Note the logarithmic y-axis. […] Data are presented as mean ± SEM.
(§3) Association rate constant estimates were derived from recordings of GIRK current activation in response to applications of various agonist concentrations. Monoexponential functions were fit to cover 80% of the current increase in response to agonist using Levenberg–Marquardt least-squares fitting in Clampfit 10, outputting the activation time constant, τact. […] However, rather than using Equation (2), koff was calculated separately from the response decay time constant upon agonist washout, τdeact, as described above.

[2] = molecular target: T2, D2R S193^5.42A (human dopamine D2S receptor mutant) (Homo sapiens, UniProt P14416, S193A); assay: cell-based
Experimental: as §1, §2, §3
Kinetic Kds were calculated as:Kd = koff/kon(3)

[3] = molecular target: T2, D2R S193^5.42A (human dopamine D2S receptor mutant); assay: cell-based; conditions: for EC50: GIRK activation, perfusion 1 mL/min
Experimental: (§4) Following agonist application to Xenopus oocytes expressing D2R and GIRK1/4 subunits, Gβγ subunits released from activated Gi/o protein heterotrimers open the GIRK channels. […] Here, we used the GIRK current in oocytes voltage-clamped at −80 mV and superfused with a high-K^+ buffer (25 mM KCl) as a readout of agonist binding to D2R.
(§5) Thus, increasing agonist concentrations were applied consecutively to voltage-clamped oocytes expressing WT D2R, RGS4, and GIRK1/4. […] A representative trace of currents measured during p-tyramine concentration–response data acquisition is shown in Supplementary Figure S1).
(§6) Injected cells were incubated for another 6 days at 12 °C in modified Barth’s solution (MBS), composed of (in mM): 88 NaCl, 1 KCl, 2.4 NaHCO3, 15 HEPES, 0.33 Ca(NO3)2, 0.41 CaCl2, 0.92 MgSO4, and 2.5 sodium pyruvate, supplemented with 25 U/mL penicillin and 25 µg/mL streptomycin and adjusted to pH 7.6 with NaOH. […] For each concentration of agonist, the relative current amplitude after 60 s (when a steady-state response had been achieved) of agonist perfusion was plotted to generate the concentration-response relationships. Oocytes were selected for electrophysiology recordings based on having holding currents at −40 mV of less than 0.5 µA. Likewise, recordings where holding currents at −40 mV were greater than 0.5 µA after data acquisition at −80 mV were discarded.
(§7) Agonist concentration–response relationships were analyzed by fitting sigmoidal functions using nonlinear regression in GraphPad Prism 8 (GraphPad Software, San Diego, CA, USA).

[4] = molecular target: T1, WT D2R (human dopamine D2S receptor); assay: cell-based
Experimental: as §4, §5, §6, §7

D2R S193^5.42A = conditions: cited from earlier work
[5] = molecular target: T1, WT D2R (human dopamine D2S receptor); assay: GIRK current deactivation following agonist washout (koff estimate), WT D2R; assay type: cell-based
Experimental: We obtained such estimates of koff by analyzing the washout phase following short (13 s) applications of submaximally effective agonist concentrations (see legend of Figure 2) in oocytes co-expressing WT D2R with GIRK1/4 and RGS4.
Experiments were performed using a perfusion rate of 4.5 mL/min. Data are presented as mean ± SEM.
as §6

[6] = molecular target: T2, D2R S193^5.42A (human dopamine D2S receptor mutant); assay: cell-based; conditions: read-out: koff ± SEM
GIRK channels [7] = assay: Direct GIRK channel block by haloperidol; assay type: cell-based; conditions: haloperidol at 3 µM; n = 4
D2R = conditions: 1 µM haloperidol; 100 nM DA; cited from earlier work
GIRK channels [8] = conditions: haloperidol at 1 µM; cited from earlier work

T2 sequence (P14416 1-414 isoform P14416-2 S193A): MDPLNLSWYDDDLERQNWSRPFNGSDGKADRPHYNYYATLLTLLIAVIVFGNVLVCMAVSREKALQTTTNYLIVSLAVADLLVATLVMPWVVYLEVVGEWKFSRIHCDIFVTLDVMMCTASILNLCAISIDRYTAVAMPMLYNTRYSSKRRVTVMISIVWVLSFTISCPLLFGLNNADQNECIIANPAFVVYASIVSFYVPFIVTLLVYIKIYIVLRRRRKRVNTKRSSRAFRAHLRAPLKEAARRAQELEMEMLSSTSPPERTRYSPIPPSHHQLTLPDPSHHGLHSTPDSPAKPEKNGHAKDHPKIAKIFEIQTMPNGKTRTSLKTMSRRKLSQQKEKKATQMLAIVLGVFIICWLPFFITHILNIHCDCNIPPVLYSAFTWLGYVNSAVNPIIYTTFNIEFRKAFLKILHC
T1 sequence (P14416 1-414 isoform P14416-2): as the sequence (P14416 1-414 isoform P14416-2 S193A) above, with A193S counted along it

NCCc1ccc(O)cc1 [p-tyramine]
Kd ([1]; Kd = koff/kon, read-out: pKd ± SEM (kinetic Kd) (converted)): 24.5 µM
kon ([1]; slope of linear fit of kobs vs agonist concentration, perfusion 4.5 mL/min): 4940 ± 1.15e+06 M⁻¹ s⁻¹
Kd [2]: 11.7 µM
kon ([2]; read-out: kon ± SEM): 9410 ± 2.34e+06 M⁻¹ s⁻¹
EC50 ([3]; EC50, S193^5.42A D2R): 47.9 µM
Relative efficacy (fitted Top) ([3]; S193^5.42A D2R, normalized to the response evoked by 300 µM DA): 0.37 ± 0.01
fold increase of DA-normalized agonist efficacy at S193^5.42A ([3]; S193^5.42A vs WT D2R): 4.1 fold
EC50 ([3]; pEC50 ± SEM, S193^5.42A D2R): 47.9 µM
EC50 [4]: 100 µM
Relative efficacy (fitted Top) ([4]; WT D2R, normalized to the response evoked by 1 µM DA): 0.09 ± 0.01
decrease of affinity by alanine mutation of S193^5.42 (D2R S193^5.42A): less than twofold
koff [5]: 0.123 ± 0.008 s⁻¹
koff [6]: 0.112 ± 0.008 s⁻¹

O=C(CCCN1CCC(O)(c2ccc(Cl)cc2)CC1)c1ccc(F)cc1 [haloperidol]
direct GIRK current block (GIRK channels [7]): 5.9 ± 0.2%
block of the GIRK response to DA (D2R): fully blocks
GIRK channel block (GIRK channels [8]): negligible
